Some test systems named below: Hs-578T; MDA-MB-231; EKVX; OVCAR-3; HOP-62; OVCAR-5; CAKI-1; SK-MEL-28; UO-31; HL-60; LOX IMVI; SNB-75; NCI-H460; M14; RXF 393; HCT-116; K562; HCC 2998; UACC-257; MDA-N.
Holding throughout (assay): NCI anticancer screen, dose series, 48 h

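Five concentrations, 48 hours, 96-well plates. GI50: concentration for 50% inhibition of growth.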 The source made the active and inactive calls. Rule as the data show it: active = GI50 up to about 1.1 µM and inactive = higher.

On to `COc1ccc2nc3cc(Cl)ccc3c(NCCCN(C)CCCNc3ccc4ncn5c6ccccc6c(=O)c3c45)c2c1`, for which the GI50 with Hs-578T was 3.99 µM (inactive); in the test on MDA-MB-231, 0.108 µM (active); in the test on EKVX, 0.637 µM (active); in the test with OVCAR-3 it was 1.57 µM (inactive); in the test with HOP-62, 0.817 µM (active); in the test with OVCAR-5, 3.09 µM (inactive). For the same molecule, the GI50 in the test on CAKI-1 was 0.184 µM (active); with SK-MEL-28, 2.61 µM (inactive); in the test on UO-31, 0.488 µM (active); with HL-60, 0.0226 µM (active); in the test on LOX IMVI it was 0.116 µM (active); in the test on SNB-75, 2.38 µM (inactive). For the same molecule, the GI50 in the test with NCI-H460 is 0.0157 µM (active); in the test on M14 it was 0.558 µM (active); in the test with RXF 393, 0.0536 µM (active); in the test on HCT-116, 0.0025 µM (active); in the test with K562, 0.00383 µM (active); with HCC 2998, 0.0103 µM (active). Besides, the GI50 with UACC-257 was 0.973 µM (active); with MDA-N, 0.0817 µM (active).
With `C=C1C[C@@H]2O[C@H]3[C@H]4[C@@H](C[C@@H](C)[C@@H](OC(C)=O)[C@H]42)[C@@H](C)CO[C@@]3(C)[C@H](OC(=O)CCCCCCC)C[C@H]1O`, the GI50 with Hs-578T is 14.4 µM (inactive); in the test on MDA-MB-231, 13.8 µM (inactive); in the test with EKVX it was 13.9 µM (inactive); in the test with OVCAR-3 it was 22.5 µM (inactive); with HOP-62, 17.4 µM (inactive); in the test with OVCAR-5 it was 17.5 µM (inactive). In addition, the GI50 in the test with CAKI-1 is 14.8 µM (inactive); with SK-MEL-28 it was 17.4 µM (inactive); with UO-31, 15.8 µM (inactive); with HL-60, 12.4 µM (inactive); in the test with LOX IMVI, 13.2 µM (inactive); in the test with SNB-75 it was 16.7 µM (inactive). Moreover, the GI50 in the test on NCI-H460 is 16.1 µM (inactive); in the test with M14, 20 µM (inactive); in the test with RXF 393, 18.9 µM (inactive); in the test with HCT-116, 16.5 µM (inactive); in the test with K562, 22.9 µM (inactive); with HCC 2998 it was 16.9 µM (inactive). The GI50 in the test on UACC-257 and in the test with MDA-N was 16.7 µM (inactive) in each case.
As for `CSc1ncnc2c1CCN2`, the GI50 in the test with Hs-578T was 4.51 µM (inactive); in the test on MDA-MB-231, > 10 µM (inactive); in the test with EKVX, > 10 µM (inactive); with OVCAR-3, 2.87 µM (inactive); in the test with HOP-62, > 100 µM (inactive); with OVCAR-5 it was > 10 µM (inactive). Further, the GI50 in the test on CAKI-1 was > 10 µM (inactive); in the test on SK-MEL-28, > 10 µM (inactive); in the test on UO-31, 50.6 µM (inactive); with HL-60, 4.29 µM (inactive); in the test on LOX IMVI, 6.34 µM (inactive); in the test on SNB-75, > 10 µM (inactive). The GI50 was 5.37 µM (inactive) in the test on NCI-H460; > 10 µM (inactive) in the test on M14; > 10 µM (inactive) with RXF 393; 6.07 µM (inactive) with HCT-116; 4.93 µM (inactive) with K562; > 10 µM (inactive) with HCC 2998. Further, the results for the GI50 with UACC-257 and in the test on MDA-N were 3.83 µM (inactive) and 3.4 µM (inactive), respectively.
In the case of `Cc1cc(N(CCC#N)CCC#N)ccc1/C=N/NC(=O)c1ccccc1`, the GI50 in the test with Hs-578T was 15.4 µM (inactive); in the test on MDA-MB-231, 15 µM (inactive); in the test on EKVX it was 48.9 µM (inactive); in the test with OVCAR-3 it was 15 µM (inactive); in the test on HOP-62, 31.8 µM (inactive); with OVCAR-5, > 80.5 µM (inactive). Moreover, the GI50 is 23.1 µM (inactive) with CAKI-1; 31.5 µM (inactive) in the test on SK-MEL-28; > 62.1 µM (inactive) in the test with UO-31; 4.17 µM (inactive) in the test with HL-60; 8.02 µM (inactive) in the test on LOX IMVI; 28.9 µM (inactive) in the test on SNB-75. Besides, the GI50 in the test with NCI-H460 is 9.1 µM (inactive); in the test on M14 it was 40.6 µM (inactive); in the test with RXF 393 it was 28.4 µM (inactive); in the test on HCT-116 it was 7.57 µM (inactive); with K562, 3.76 µM (inactive); in the test on HCC 2998, 9.2 µM (inactive). Moreover, the GI50 in the test on UACC-257 was > 48.9 µM (inactive); in the test with MDA-N, 2.86 µM (inactive).
